Data on four compounds can be found in US20250034216A1, “STEREOSELECTIVE COVALENT LIGANDS FOR ONCOGENIC AND IMMUNOLOGICAL PROTEINS” (The Scripps Research Institute, priority 2021, published 2025).

Each structure is given as a SMILES string.

Common to all, as to experiment: IA-DTB cysteine engagement
Holding throughout (format): binding
Common to all, as to settings: 22Rv1 cells, 20 μM probe, 1 h, relative to DMSO

For one experiment, the target named is T1, ATP9A_C31 (Homo sapiens, UniProt O75110).
T1 construct: endogenous in cells; host or cells: 22Rv1
T1 sequence (O75110 1-1047): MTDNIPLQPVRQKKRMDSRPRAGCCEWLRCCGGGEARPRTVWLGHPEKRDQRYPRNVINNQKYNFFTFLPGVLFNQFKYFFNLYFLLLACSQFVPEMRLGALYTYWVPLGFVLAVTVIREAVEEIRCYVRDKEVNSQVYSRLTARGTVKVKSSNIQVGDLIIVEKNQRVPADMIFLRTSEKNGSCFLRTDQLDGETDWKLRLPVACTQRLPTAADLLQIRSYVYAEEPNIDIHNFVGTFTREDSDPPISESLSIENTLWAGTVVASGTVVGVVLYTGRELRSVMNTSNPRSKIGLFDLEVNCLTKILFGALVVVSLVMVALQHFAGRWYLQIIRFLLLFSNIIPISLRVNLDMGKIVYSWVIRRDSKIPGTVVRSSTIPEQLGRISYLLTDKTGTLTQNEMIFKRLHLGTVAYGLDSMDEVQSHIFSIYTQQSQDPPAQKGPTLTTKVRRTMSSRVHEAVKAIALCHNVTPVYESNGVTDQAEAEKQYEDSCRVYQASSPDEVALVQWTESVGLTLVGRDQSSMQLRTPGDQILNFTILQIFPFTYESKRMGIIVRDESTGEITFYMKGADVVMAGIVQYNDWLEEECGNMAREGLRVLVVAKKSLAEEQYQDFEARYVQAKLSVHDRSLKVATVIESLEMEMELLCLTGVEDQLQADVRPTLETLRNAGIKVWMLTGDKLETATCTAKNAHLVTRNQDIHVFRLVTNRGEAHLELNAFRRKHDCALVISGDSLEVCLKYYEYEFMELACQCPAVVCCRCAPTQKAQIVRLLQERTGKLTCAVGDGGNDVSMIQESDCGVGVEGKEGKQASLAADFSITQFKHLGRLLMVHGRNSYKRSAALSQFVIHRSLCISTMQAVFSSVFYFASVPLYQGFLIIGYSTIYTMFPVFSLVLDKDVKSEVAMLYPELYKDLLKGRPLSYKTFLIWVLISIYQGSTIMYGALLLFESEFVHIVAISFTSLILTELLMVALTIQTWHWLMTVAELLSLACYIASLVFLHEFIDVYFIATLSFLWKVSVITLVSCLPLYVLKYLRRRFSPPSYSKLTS
The gist of the method:
(§1)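 Read-out is TMT-based cysteine engagement, expressed as each reporter ion intensity divided by the average of the DMSO channels. Before that, probe-treated cell lysates were capped with IA-DTB, digested, enriched on streptavidin and TMT-tagged. PSMs with DMSO summed intensity <10,000 or DMSO CV >0.5 were excluded.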

In another experiment the target is T2, SLC25A39_C334 (Homo sapiens, UniProt Q9BZJ4).
T2 construct: endogenous in cells; host or cells: 22Rv1
T2 sequence (Q9BZJ4 1-359): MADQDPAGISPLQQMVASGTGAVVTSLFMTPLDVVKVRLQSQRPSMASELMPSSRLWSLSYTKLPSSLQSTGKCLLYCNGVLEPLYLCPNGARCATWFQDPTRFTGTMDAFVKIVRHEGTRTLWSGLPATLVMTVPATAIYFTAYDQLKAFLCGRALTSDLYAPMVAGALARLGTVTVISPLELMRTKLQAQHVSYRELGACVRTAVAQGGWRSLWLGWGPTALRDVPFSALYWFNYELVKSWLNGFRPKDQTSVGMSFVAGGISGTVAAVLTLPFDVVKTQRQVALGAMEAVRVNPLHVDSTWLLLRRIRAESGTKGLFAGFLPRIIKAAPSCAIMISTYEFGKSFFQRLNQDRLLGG
The gist of the method:
as §1

For the next experiment, the target named is T3, DDX39B_C87 (Homo sapiens, UniProt Q13838).
T3 construct: endogenous in cells; host or cells: 22Rv1
T3 sequence (Q13838 whole entry): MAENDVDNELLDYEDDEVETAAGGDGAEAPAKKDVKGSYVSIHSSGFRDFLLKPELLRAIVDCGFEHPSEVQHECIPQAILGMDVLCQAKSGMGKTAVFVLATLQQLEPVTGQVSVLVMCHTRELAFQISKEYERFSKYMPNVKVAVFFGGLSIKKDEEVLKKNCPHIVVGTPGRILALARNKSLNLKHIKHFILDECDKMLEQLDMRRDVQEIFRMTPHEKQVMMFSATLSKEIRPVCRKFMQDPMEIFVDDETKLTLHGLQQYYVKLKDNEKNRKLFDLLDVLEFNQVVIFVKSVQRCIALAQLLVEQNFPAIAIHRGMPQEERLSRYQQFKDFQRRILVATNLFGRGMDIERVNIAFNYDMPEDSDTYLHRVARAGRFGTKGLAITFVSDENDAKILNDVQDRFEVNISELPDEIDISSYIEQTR
In short, it runs like this:
as §1

On to `C=CC(=O)N1C[C@@H](c2ccc(Br)cc2)[C@H]1C(=O)Nc1cccc2cccnc12` [MY-1A, (2S,3R)-1-acryloyl-3-(4-bromophenyl)-N-(quinolin-8-yl)azetidine-2-carboxamide], for which the “% engagement ATP9A_C31” value at ATP9A_C31 amounted to 84.5%. Besides, the “% engagement SLC25A39_C334” value on SLC25A39_C334 is 23%. For the same compound, on DDX39B_C87, the “% engagement DDX39B_C87” value is given as 44.5%.
On to `C=CC(=O)N1C[C@H](c2ccc(Br)cc2)[C@@H]1C(=O)Nc1cccc2cccnc12` [MY-1B, (2R,3S)-1-acryloyl-3-(4-bromophenyl)-N-(quinolin-8-yl)azetidine-2-carboxamide], for which, at ATP9A_C31, the “% engagement ATP9A_C31” value was 79.5%. In addition, the “% engagement SLC25A39_C334” value on SLC25A39_C334 is on record as 45.5%. The “% engagement DDX39B_C87” value at DDX39B_C87 amounted to 37%.
Consider `C=CC(=O)N1C[C@H](c2ccc(Br)cc2)[C@H]1C(=O)Nc1cccc2cccnc12` [MY-3A, (2S,3S)-1-acryloyl-3-(4-bromophenyl)-N-(quinolin-8-yl)azetidine-2-carboxamide], for which the “% engagement ATP9A_C31” value at ATP9A_C31 is on record as 73%. For the same compound, the “% engagement SLC25A39_C334” value on SLC25A39_C334 was determined as 30.5%. In addition, the “% engagement DDX39B_C87” value at DDX39B_C87 came to 23.5%.
For `C=CC(=O)N1C[C@H](c2ccc(Br)cc2)[C@H]1C(=O)Nc1cccc2cccnc12` [MY-3B, (2S,3S)-1-acryloyl-3-(4-bromophenyl)-N-(quinolin-8-yl)azetidine-2-carboxamide], in that order: 86.5%, 72% and 67.5%.
